The subject of data set [1] is HL60, U937 and K562 cells. As to conditions: P. Pal et al., Proteomics 2011, read-out: IC50 inducing apoptosis; cited from earlier work.
Data set [2] deals with K562 cells. The data set is described as follows: ROS generation by flow cytometry (DCF-DA), K562 cells. Format: cell-based. As to conditions: K562, 1 uM ORM. As for the experimental part: FIG. 5: ORM at a dose of 1 uM induces ROS generation: A property of activated neutrophils: Flow cytometry analysis was performed for the ROS generation in K562 cells after treatment with 1 uM ORM for 24 h and 48 h. Cells were labeled with DCF-DA dye and fluorescence was measured.
Furthermore, ORM induces granulocytic differentiation in K562 cells, it should lead to terminal differentiation of these cells to activated neutrophils. To substantiate further the induction of granulocytic differentiation and neutrophil formation, we measured the ROS generation, which is a property of activated neutrophils by FACS flow cytometer.

The test system of data set [3] is K562 cells. Description: FACS flow cytometry for cd11b in K562 cells. Format: cell-based. To be noted: 24 and 48 h. The protocol: 7. FACS analysis: Cells were treated with 1 uM ORM for 24 h and 48 h. Then they were washed with 1×PBS and resuspended in antibody solution along with their respective IgG isotype control for 15-20 min as per manufacturer's protocol. Cells were washed once with PBS and were resuspended in 500 ul of PBS. After this flow cytometry was done for PI labeled cells for cd11b and cd114 differentiation markers (BD Biosciences).
(§1) K562 cells were treated with 1 μM (Subapoptotic dose) and 7.5 μM ORM (Apoptotic dose) for 24 h and 48 hrs. Post 24 h and 48 h treatment, cells were analyzed in FACS-flow cytometer for the presence of myeloid differentiation marker cd11b (FIG. 2). In parallel, HL60 cells were also treated with 1uM All-Trans-Retinoic Acid (ATRA) for 72 hrs which served as control for induction of differentiation. […] Isotype IgG-PE antibody served as negative control.

Data set [4] concerns K562 cells. The data set is described as follows: Real time and semi quantitative PCR of differentiation markers, K562 cells. Format: cell-based. As for the experimental part:
5. Quantitative PCR (Real Time) and semi quantitative PCR Analysis: After induction of cells with ORM for indicated time points cells were harvested and RNA was isolated using Trizol reagent. Trizol was added to 1×10^6 cells for 5 min at room temp. Lysed cells were collected in micro centrifuge tubes and shaken vigorously for 15 sec, and incubated for 3 min at RT. 200 μl of chloroform was added to each sample and incubated yet again for 5 min at RT. Cells were centrifuged at 15,000 rpm for 15 min at 4° C. Supernatant was collected in fresh tube; 1 ml isopropanol was added and incubated for 10 min at RT. Pellet was washed once with 70% ethanol and RNA concentration was quantified. Further, RNA was retro-transcribed into cDNA and subsequently used for quantitative PCR analysis on Roche Light Cycler 480 using SYBR green master mix from Applied Biosystems. Statistical analysis was performed using ΔΔCT method. Reverse transcriptase PCR was done to check the mRNA level expression of GCSFr qualitatively. RT-PCR analysis was performed using standardized PCR protocol on BioRad C1000 Thermal Cycler.

The subject of data set [5] is myeloid leukemia cells (U937, HL60, K562). The data set is described as follows: MTT cell viability assay, myeloid leukemia cells. The format is cell-based. To be noted: leukemic cells (U937, HL60, K562), read-out: 50% growth inhibitory concentration (IC50). The protocol:
FIG. 1: ORM induces cell toxicity in myeloid leukemia cells: (a) Chemical structure of ormeloxifene. […] Assay was performed on 3 replicates for each treatment and repeated twice.
(§2) 2. MTT assay: Post 6 h synchronization, 1×10^4 cells per well were incubated at 37° C. in 96-well plastic plates with test drugs containing 10% FBS in an environment of 5% humified CO2. After 48 hrs, cell viability was assessed by the ability of metabolically active cells to reduce tetrazolium salt […] to coloured formazan compounds. The absorbance of the samples was measured with a specific enzyme-linked immunosorbent assay (ELISA) reader at 560 nm.
(§3) To calculate 50% growth inhibitory concentration (IC50) of ormeloxifene, various myeloid leukemia cells (U937, HL60, K562) and HEK293T as control were assayed with different doses of ormeloxifene for cell viability in MTT Assay. […] Various apoptosis assays were performed in myeloid leukemia cells upon treatment with ormeloxifene that induces G0-G1 phase growth arrest and caspase mediated apoptosis in myeloid leukemia via ERK activation.

Data set [6] deals with advanced breast cancer. To be noted: cited from earlier work.
The subject of data set [7] is HL60 cells. Description: Morphology after long ORM treatment, HL60 cells. The format is cell-based. To be noted: HL60, 1 uM ORM, 12 and 15 days. The protocol:
(§4) FIG. 7: ORM at 1 uM dose induces differentiation like morphology both in HL60 and U937 cells: (a) HL60 and (b) U937 cells were treated with 1 uM ORM for 12 and 15 days and there was change in the morphology of cells by decrease in the nuclear and cytoplasmic ratio and formation of multilobed nuclei which is typical for neutrophilic differentiation.
(§5) 3. Giemsa staining: Giemsa stain is used to differentiate nuclear and cytoplasmic morphology of blood cells. After induction with 1 uM ORM for 12 days cells were cytospun on slides at 800 rpm for 5 min and were air dried. Cells were stained with Giemsa stain (Sigma) as per manufacturer's protocol. Cells were visualized microscopically for the morphological changes.
(§6) Profound granulocytic differentiation inducing property of ormeloxifene in K562 prompted us to investigate if ORM can also induce such differentiation in other myeloid leukemia cell lines. So we further chose HL60 and U937, a promyelocyte and myelomonocyte leukemia cell line. These cells differentiate to granulocyte lineage upon induction with all trans-retinoic acid (ATRA) and represent a very good model cell line for such differentiation assays. These cells were treated with 1 uM ORM for longer duration of 12 and 15 days followed by assessment of granulocytic/neutrophil like morphology.

For data set [8], the system named is K562 cells. The data set is described as follows: NBT reduction assay, K562 cells. Format: cell-based. To be noted: K562, 7.5 uM ORM 24 h and 48 hrs, 1 uM 6 days. The protocol:
4. NBT assay: The NBT Assay relies on the accumulation of blue black formazan precipitate. The membrane permeable, water soluble, yellow NBT is reduced to blue black formazan by O^−2, which is generated by activated neutrophils/phagocytes, typically by PMA. PMA activates NADPH oxidase by enhancing protein kinase C (PKC) and thus stimulates production of ROS (reactive oxygen species). After induction with 7.5 uM ORM for 24 h and 48 hr and with 1 uM ORM for 6 days cells were incubated in NBT solution for 15 min. at 37° C. Cells were washed with PBS and were resuspended in 500 ul PBS and cytospun on slides and stained with safranin O for 1 min. Number of cells showing blue-purple colouration were counted under microscope.
In order to further confirm the ORM induced differentiation in myeloid leukemia cells, Nitro Blue Tetrazolium (NBT) reduction assay is carried out which is a biochemical assay wherein activated granulocytes can reduce NBT to insoluble purple blue colour precipitates. Further, because ORM induces apoptosis at 7.5 uM in K562 cells; we treated K562 cells with 7.5 uM for 24 h and 48 hrs and 1 uM doses for longer duration, 6 days. Cells were subjected for NBT reduction analysis. […] This further confirmed differentiation inducing potential of ORM.

The test system of data set [9] is primary cells isolated from CML patients. The data set is described as follows: FACS for cd11b and cd114 in primary mononuclear cells from CML patients. Format: cell-based, human. As to conditions: CML patient mononuclear cells, 1 uM ORM, 24 and 48 hr. As for the experimental part: FIG. 6: ORM induces myeloid differentiation in primary cells isolated from CML patients PBMCs were isolated from patient samples and were analyzed by FACS for cd11b positive cells.
6. PBMC separation from patient sample: 10 ml peripheral blood was collected by venipuncture heparin-containing 20 ml vials. Peripheral blood mononuclear cells were isolated using density gradient centrifugation with Ficoll-Paque (1.077 g/ml). Peripheral blood was mixed in 1:1 v/v of MACS buffer and was fractionated through Ficoll-Paque. Mononuclear cells were collected from the interface, washed twice in MACS buffer and resuspended in RPMI 1640 at 37° C. in the humidified atmosphere of 5% CO2.
7. FACS analysis: Cells were treated with 1 uM ORM for 24 h and 48 h. Then they were washed with 1×PBS and resuspended in antibody solution along with their respective IgG isotype control for 15-20 min as per manufacturer's protocol. Cells were washed once with PBS and were resuspended in 500 ul of PBS. […]
Although recent studies using differentiation therapies in oncology have been successful for acute promyelocytic leukemia (APL) with the use of all-trans retinoic acid (ATRA) (S. Waxman, Leukemia, 2000, 14(3):491-496), little is known about exact mechanisms of differentiation. […] Cells were treated with 1 uM ORM and were analyzed for expression of cd11b and cd114 surface markers after 24 and 48 hr.

The subject of data set [10] is K562 cells. Description: Giemsa staining morphology, K562 cells. The format is cell-based. The protocol: as §5
To further corroborate the differentiation inducing potential of ORM, K562 cells were again treated with 1.0 uM ORM and vehicle for 12 days followed by cytospin and staining with Giemsa for assessment of morphological changes. […] It is noteworthy to mention here that at higher doses (5 uM to 7.5 uM) there is early onset of myeloid differentiation (72 h for 5 uM and 24,48 h for 7.5 uM) with reduced no. of cells which is likely due to apoptotic effects of ORM at higher dose. In contrary, at lower doses (1 uM) differentiation is observed after longer duration (6-15 days) with quite reduced apoptotic effect.

For data set [11], the system named is HEK293T. The data set is described as follows: MTT cell viability assay, HEK293T control. The format is cell-based. To be noted: Homo sapiens, HEK-293T, 293T control cells, 48 hrs, read-out: 50% growth inhibitory concentration (IC50). As for the experimental part: as §2, §3
Data set [12] deals with U937 cells. Description: Morphology after long ORM treatment, U937 cells. Format: cell-based. To be noted: U937, 1 uM ORM, 12 and 15 days. The protocol:
as §4, §5, §6

The subject of data set [13] is Salmonella. As to conditions: Giri et al., Mutagenesis 1999; cited from earlier work.
Data set [14] concerns HL60 cells. The data set is described as follows: FACS flow cytometry for cd11b in HL60 cells (differentiation control). Format: cell-based. To be noted: HL60, 1 uM ATRA, 72 hrs. The protocol:
as §1

Setting [15] is: K562, 1 uM ORM, 24 and 48 h, real time PCR.

Read-outs that look alike come from different tables or passages of the source.

On to `COc1ccc2c(c1)OC(C)(C)C(c1ccccc1)C2c1ccc(OCCN2CCCC2)cc1` (stereo not drawn) [ORM, 3,4-trans-2,2-dimethyl-3-phenyl-4-p-(beta-pyrrolidinoethoxy)phenyl-7-methoxychroman], for which the IC50 was 7.5 µM in [1], ~7.5 µM in data set [5] (48 h), ~7 µM in data set [5] (48 hrs) and 25 µM in data set [11]. The ROS generation entry in data set [2] is given as “Significant upregulation in ROS generation”. Also, the “cells expressing cd11b marker” value in data set [3] (K562, 1.0 uM ORM) is recorded as “increased percentage of cells expressing CD11b markers”; in data set [3] (K562, 7.5 uM ORM), “Reduced number of cd11b expressing cells”. In addition, in [4] (setting [15]), the “C/EBP epsilon mRNA expression” value is “increased mRNA expression”. The “C/EBPalpha mRNA expression” value in [4] (setting [15]) was “increased mRNA expression”. For the same molecule, the “GCSFr mRNA expression” value in [4] (setting [15]) was “increased mRNA expression”; in [4] (K562, 7.5 uM ORM, 24 h and 48 h, quantitative and semi quantitative PCR), “modest upregulation”. Further, the “cd11b mRNA expression” value in [4] (setting [15]) was “increased mRNA expression”. Besides, the “level of GCSFr” value in data set [4] (K562, Reverse transcriptase-PCR (FIG. 4f, g)) is listed as “marked increase”. Besides, the overall response rate was 40.5% in [6] (both male and female cases (4 male, 75 female)); 38.7% in data set [6] (female patients). Moreover, the granulocytic/neutrophil like morphology result in [7] and in data set [12] was “large number of cells with multilobed nucleus” in each case. Besides, the NBT reduction result in [8] is listed as “dramatic increase in NBT reduction”. Further, the “expression of cd11b surface marker” value in data set [9] was “significant upregulation”. In data set [9], the “expression of cd114 surface marker” value is on record as “significant upregulation”. For the same molecule, the “morphological changes (Giemsa)” value in [10] (K562, 1.0 uM ORM, 12 days) is recorded as “differentiated cells having neutrophil like morphology were observed”; in [10] (K562, 5 uM ORM, 72 hrs) it was “neutrophil like morphological changes”. Besides, the “mutagenic effects of DMBA, CP, MMC and EMS” value in [13] is given as “can reduce the mutagenic effects”.
As to `CC1=C(/C=C/C(C)=C/C=C/C(C)=C/C(=O)O)C(C)(C)CCC1` [ATRA, All-Trans-Retinoic Acid], in [14], the “cd11b early myeloid differentiation marker” value was “increased”.
